The record followed here is patent publication US10815197B2, “N-sulfonyl benzamides as voltage-gated sodium channel inhibitors” (SHANGHAI HAIYAN PHARMACEUTICAL TECHNOLOGY CO., LTD., priority 2016, dated 2020).

For experiment [1], the target named is T1, hERG potassium ion channel (Homo sapiens, UniProt Q12809).
T1 construct: host or cells: CHO
In words: Effect on hERG potassium ion channel (CHO hERG cells, manual patch clamp). The conditions noted are these: final 10 μM test concentration, read-out: hERG inhibitory concentration IC50. In kind it is cell-based. The method, then:
Assay 2: Effect on hERG Potassium Ion Channel 2.1 Cell Culture 2.1.1 Cells used in this experiment were CHO cell lines (supplied by Sophion Bioscience, Denmark) which were hERG cDNA transfectant and stably express hERG channels, and cell progeny was P15. Cells were cultured in medium containing the following ingredients Invitrogen): Ham's F12 medium, 10% (v/v) inactivated fetal bovine serum, […] Geneticin. 2.1.2 CHO hERG cells were grown in Petri dishes containing the above medium and cultured in an incubator containing 5% CO2 at 37° C. CHO hERG cells were transferred onto round glass plates in Petri dishes, and grown on the same culture medium under culture conditions as above for 24 h to 48 h prior to the electrophysiological experiments, and the density of CHO hERG cells on each round glass plate needs to meet the requirements that the vast majority of cells are independent and individual. 2.2 Experimental Solution The following solutions (supplied by Sophion) were used for electrophysiological recording as shown in Table 3. The reagents used in this test were provided by Sigma. [table] 2.3 Electrophysiological Recording System In this experiment, whole-cell current recording was performed using a manual patch clamp system (HEKA EPC-10 signal amplification and digital conversion system, purchased from HEKA Electronic, Germany). The round glass slide, surface of which CHO hERG cells were grown on was placed in an electrophysiological recording slot under an inverted microscope. Extracellular fluid was used for steady perfision in recording slot (approximately 1 ml per minute). A conventional whole-cell patch clamp current recording technique was used in the experiment. Unless otherwise specified, experiments were performed at normal room temperature (25° C.). Cell clamping was at −80 mV. Cell clamping voltage depolarized to +20 mV to activate hERG potassium channel, clamping to −50 mV after 5 sec to eliminate inactivation and generate tail currents. The tail current peak was used as a value for hERG current. The hERG potassium current recorded in the above steps could be superfused for test drug after the steady perfusion state of the extracellular fluid in the recording slot is stabilized until the inhibition of the hERG current by the drug reached a steady state. The coincidence of the last three consecutive current recording lines was generally used as a criterion to determine whether the state is stable. After reaching a steady state, perfused with extracellular fluid until hERG current returned to the value before the drug adding. One or more drugs could be tested on a single cell, or multiple concentrations of the same drug, but needed to be rinsed with extracellular fluid between different drugs. […] 2.4 Compound Treatment and Dilution The compound was firstly dissolved in DMSO to a concentration of 10 mM and then the compound was diluted 1000-fold to the final […] test concentration using an extracellular solution. The final concentration of DMSO in the compound test solution was equal to 0.1%. […] All stock solutions and test solutions were subjected to regular 5-10 minute sonication and shaken to ensure complete dissolution of the compound. 2.5 Data Analysis The test data were analyzed by the data analysis software provided by HEKA Patchmaster (V2x73.2), Microsoft Excel and Graphpad Prism 5.0.
For orientation: Block of hERG is tested as a sign of cardiac risk.

In experiment [2] the test system is SNL-induced cold allodynia in rats. In words: Cold allodynia in SNL (spinal nerve ligation) rats. In kind it is in vivo, rat. The source says: Assay 3: Cold Allodynia in SNL
The experimental animals were male Sprague-Dawley rats, weighing 140-150 g at the beginning of the experiment. The animals were purchased from Slack company, and food and water were supplied ad lib after purchase. Rats were group-housed, four rats/cage, and individually identified by marking on the tail.
Test Compound and Grouping:
Vehicle: 5% dimethylacetamide(Sinopharm Technology), 5% solutol (Sigma) and 90% saline
Positive control: Pregabalin;
Test compound: compound Z-164;
The positive control and solvent composition of the test compound are 5% dimethylacetamide, 5% solutol and 90% saline.
30 mg/kg Compound Z-164:1.23 mL of dimethylacetamide was added to 148.11 mg of compound Z-164, stirred well until fully dissolved, and then 1.23 mL solutol was added and mixed well. Final volume was made up with 90% saline to 21.44 mL and mixed well before oral administration.
30 mg/kg Pregabalin: 1.08 mL of dimethylacetamide was added to 129.48 mg of Pregabalin, stirred well until fully dissolved, and then 1.08 mL solutol was added and mixed well. Final volume was made up with 90% saline to 21.58 mL and mixed well before oral administration.
1.1. Spinal Nerve Ligation (SNL) model • Surgical procedures are performed aseptically. • The surgical instruments (scissors, tweezers, scalpels, surgical cotton, sutures, retractor) are sterilized prior to surgery. • Animals were anesthetized with pentobarbital (50 mg/kg, i.p.). A toe pinch was used to ensure that the animals were fully anesthetized prior to surgery. Put ophthalmic ointment in the animal's eyes to prevent the corneas from drying out. • The fur on the surgical area of animal's lower body was shaved, and the skin of the surgical area was swabbed with 3 rounds of Betadine and 70% ethanol. The skin was allowed to dry before surgery. • A longitudinal incision will be made by scalpel at the lower lumbar and sacral levels, exposing the paraspinal muscles on the left side. The retractor was used to separate the muscles and tissues to expose the vertebra. • The left L5 and L6 spinal nerves will be isolated and tightly ligated with 6-0 silk thread. • The wound was closed with sutures. • The surgical instruments were cleaned, and sterilized by using a glass bead sterilizer. • Animals were placed on the electric blanket after surgery. Inject 5 ml sterile saline to prevent dehydration. The animals were returned to their home cage after fully awake (walking around).
1.2. Baseline Test of Cold Allodynic and Grouping
The baseline of cold allodynic was measured in rats two days before dosing. Use a pipette to apply 100 μl of acetone to the animal's lateral hind paw skin and the time of slapping, flinching, lifting, licking of the affected paw were recorded for one minute. Acetone was applied twice in total and the two applications were 10 minutes apart. The sum of the two times was recorded as cold allodynic time in rats. The rats were grouped randomized according to the results of baseline test of cold allodynic the day before dosing.
1.3. Cold Allodynic Testing
A pipette was used to apply 100 μl of acetone to the animal's lateral hind paw skin two hours after dosing and the time of slapping, flinching, lifting, licking of the affected paw were recorded for one minute. Acetone was applied twice and the two applications were 10 minutes apart. The sum of the two times was recorded as cold allodynic time in rats.
Oral administration was performed two hours before cold allodynic testing.
1.5. Data Collection and Analysis
Data were collected with Excel and analyzed with Prism.

Where [3] appears, read: 30 mg/kg p.o., two hours after dosing.

“Also recorded” adds a separate entry of the source. Where only a bound is given, the exact number is not on record here.

T1 sequence (Q12809 whole entry): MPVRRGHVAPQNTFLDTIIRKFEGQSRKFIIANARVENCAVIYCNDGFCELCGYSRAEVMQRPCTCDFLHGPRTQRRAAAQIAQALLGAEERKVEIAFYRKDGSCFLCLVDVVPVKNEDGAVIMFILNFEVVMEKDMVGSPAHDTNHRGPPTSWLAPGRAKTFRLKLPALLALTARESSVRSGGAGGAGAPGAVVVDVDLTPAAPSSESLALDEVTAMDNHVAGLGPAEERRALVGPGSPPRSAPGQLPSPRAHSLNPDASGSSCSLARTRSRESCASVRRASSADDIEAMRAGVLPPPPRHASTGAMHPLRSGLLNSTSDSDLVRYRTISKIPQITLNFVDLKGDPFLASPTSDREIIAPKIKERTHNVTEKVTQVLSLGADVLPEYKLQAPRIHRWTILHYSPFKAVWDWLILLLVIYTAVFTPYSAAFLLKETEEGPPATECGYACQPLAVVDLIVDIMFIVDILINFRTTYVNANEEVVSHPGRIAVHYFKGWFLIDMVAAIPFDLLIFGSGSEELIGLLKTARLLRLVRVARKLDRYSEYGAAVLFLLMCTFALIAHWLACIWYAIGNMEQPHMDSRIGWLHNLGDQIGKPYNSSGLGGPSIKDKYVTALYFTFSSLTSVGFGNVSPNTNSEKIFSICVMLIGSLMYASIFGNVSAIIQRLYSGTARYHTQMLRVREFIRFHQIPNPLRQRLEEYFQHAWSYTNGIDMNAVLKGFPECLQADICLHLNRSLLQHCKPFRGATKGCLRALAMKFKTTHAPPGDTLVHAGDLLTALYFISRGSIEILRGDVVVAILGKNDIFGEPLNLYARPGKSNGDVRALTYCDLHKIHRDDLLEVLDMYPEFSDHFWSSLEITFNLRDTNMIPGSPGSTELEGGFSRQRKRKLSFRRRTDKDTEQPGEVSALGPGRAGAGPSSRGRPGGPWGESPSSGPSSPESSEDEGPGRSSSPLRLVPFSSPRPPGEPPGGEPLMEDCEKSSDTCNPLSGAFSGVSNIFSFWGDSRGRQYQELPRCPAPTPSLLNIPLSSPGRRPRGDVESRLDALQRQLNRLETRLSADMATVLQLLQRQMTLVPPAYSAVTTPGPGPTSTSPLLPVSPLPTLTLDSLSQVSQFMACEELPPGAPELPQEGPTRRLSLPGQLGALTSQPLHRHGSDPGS

`CCc1cc(N2CCN(Cc3cc(F)c(C(=O)NS(=O)(=O)C4CC4)cc3Cl)CC2)ccc1Cl` [Compound Z-178]: the IC50 in experiment [1] is greater than 10 µM. On the same count and under the same terms, next, `Cc1ccc(N2CCN(Cc3cc(F)c(C(=O)NS(=O)(=O)C4CC4)cc3Cl)CC2)cc1Cl` [Compound Z-177]: greater than 10 µM. In the case of `O=C(NS(=O)(=O)C1CC1)c1cc(Cl)c(CN2CCN(c3ccc(C4CC4)c(Cl)c3)CC2)cc1F` [Compound Z-173], the IC50 in experiment [1] is greater than 10 µM. For `CCc1cc(C(=O)NS(=O)(=O)C2CC2)c(F)cc1CN1CCN(c2ccc(OC(F)(F)F)cc2)CC1` [Compound Z-189, N-(cyclopropylsulfonyl)-5-ethyl-2-fluoro-4-((4-(4-(trifluoromethoxy)phenyl)piperazin-1-yl)methyl)benzamide], the IC50 in experiment [1] was greater than 10 µM. Turning to `C[C@@H]1CN(c2ccc(Cl)c(Cl)c2)CCN1Cc1cc(F)c(C(=O)NS(=O)(=O)C2CC2)cc1Cl` [Compound Z-172, (R)-5-Chloro-N-(cyclopropylsulfonyl)-4-((4-(3,4-dichlorophenyl)-2-methylpiperazin-1-yl)methyl)-2-fluorobenzamide], the IC50 in experiment [1] is greater than 10 µM. As to `Cc1cc(N2CCN(Cc3cc(F)c(C(=O)NS(=O)(=O)C4CC4)cc3Cl)CC2)ccc1Cl` [Compound Z-164], in experiment [2] (setting [3]), the “Anti-allodynia Effect (mean, %)” value was determined as 39.7% and the “Response duration (mean, s) the next day (Baseline)” value is 24.327 s. The “inhibition of SNL-induced cold allodynia (in words)” value in experiment [2] (30 mg/kg, 2 hr post oral administration) is given as “statistically significant inhibitory effect; also recorded: inhibition of SNL-induced cold allodynia”. Besides, the “Response duration (mean, s) the first day (Baseline)” value in experiment [2] (acetone cold allodynia, baseline before dosing) is recorded as 36.831 s.
